Data reported in patent publication US20200093768A1, “METHOD FOR TREATING DIABETES” (Huanggang Normal University, priority 2018, published 2020).
Marks after values point to notes of the source that are not given here.

How the values were obtained:
[1] = Body weight, food intake and BMI of ZDF rats treated once daily for 30 days; assay type: in vivo, rat; set-up: Food Intake / BMI: unit not given here; conditions: for Change in body weight versus ZDF control (in words): ibuprofen between day 8 and 26; for BMI / Body Weight / Food Intake: oral gavage once daily (metformin 250 mg/kg, ibuprofen 100 mg/kg); for BMI / Food Intake: n=8; for Body Weight: n=8, in g (unit assumed); for Food Intake: recorded weekly
[2] = tested on: Zucker diabetic fatty (ZDF) rats; assay: HbA1c analysis in whole blood; assay type: in vivo, rat; conditions: after 30 days of treatment, versus ZDF controls (FIG. 3A)
Procedure: On study day 30, blood was collected at CRL. […] Glycated hemoglobin (HbA1c) levels in venous whole blood were determined at CRL using the HbA1c Now test kit (Bayer, Whippany, N.J.). HbA1c was measured in treatment groups by immunoassay with anti-HbA1c using tail nick whole blood.

[3] = tested on: Zucker diabetic fatty (ZDF) rats; assay: Clinical chemistry analysis: insulin, adiponectin, lipid parameters; assay type: in vivo, rat
Procedure: Plasma analysis of insulin, adiponectin, cytokines and a full clinical chemistry panel with lipid parameters was performed at CRL using commercially available ELISA and colorimetric kits.

[4] = tested on: Zucker diabetic fatty (ZDF) rats; assay: Anti-inflammatory cytokines (IL-4, IL-10, IL-13) by ELISA; assay type: in vivo, rat; conditions: for IL-10 plasma levels: versus ZDF controls (FIG. 5B)
Excerpt: On study day 30, blood was collected at CRL.
The expression of inflammatory genes in blood and epididymal adipose tissue was next analyzed. A panel of three anti-inflammatory cytokines in whole blood was quantified by ELISA analysis as a measure for systemic inflammation (FIG. 5). IL-4, IL-10 and IL-13 are involved in the reduction of the inflammatory response through inhibition of NFκB signaling and cytokine release from macrophages.

hyperglycemic adults = conditions: clinical pilot study, low dosage of ibuprofen; cited from earlier work
[5] = tested on: Zucker diabetic fatty (ZDF) rats; assay: Oral glucose tolerance test (OGTT) on study day 29; conditions: day 29, overnight fasted, glucose 2 g/kg, versus ZDF vehicle control, metformin from 15 min (p<0.01), ibuprofen at 15 min (p<0.01) and 30 min (p<0.05)
[6] = tested on: Zucker diabetic fatty (ZDF) rats; assay: Fasted and fed blood glucose in ZDF rats; conditions: for Fasted blood glucose levels: 5 hrs fasted, versus ZDF vehicle control (FIG. 1A)
[7] = tested on: inflammatory genes (COX-2, ICAM-1, IL-1β, IL-6, TNF-α) in whole blood; assay: TaqMan qPCR of inflammatory genes in whole blood; assay type: in vivo, rat; conditions: ZDF rats, normalized to GAPDH, versus ZDF controls (FIG. 6A)
Procedure: On study day 30, blood was collected at CRL. HbA1c was measured at 8 hrs on a drop of tail whole blood and then animals were fasted. At 11 hrs, animals were dosed per normal and euthanized at 13 hrs by CO2 asphyxiation. Blood was withdrawn by cardiac puncture and 1 mL of whole blood placed into cryo vials for RNA extraction. Remaining blood was centrifuged (at 2200×g for 10 minutes at 22° C.) and serum (500 uL) pipetted into 96 well plates on dry ice for analysis of the following: insulin, adiponectin, clinical chemistry panel with lipid parameters, and the inflammatory panel. Liver, epididymal fat, kidney, heart and spleen were collected and a representative piece was snap frozen. 100 mg of tissue was transferred into 1.5 mL cold RNA later tubes and stored overnight at 4° C. before being moved to −20° C. […]
In the next set of experiments, the expression of a subset of inflammatory genes were quantified in whole blood (FIG. 6A) and epididymal fat tissue (FIG. 6B): cyclooxygenase-2 (COX-2), intracellular adhesion molecule-1 (ICAM-1), interleukin-1β (IL-1β), interleukin-6 (IL-6) and tumor necrosis factor-α (TNF-α) by TaqMan qPCR analysis. […]

[8] = Day 29 (after overnight fasting), mean
[9] = after 30 days, versus ZDF controls (FIG. 4D-F)

Row | SMILES | Change in food intake versus ZDF control (in words) ([1]; chronic treatment) | Change in body weight versus ZDF control (in words) ([1]; chronic treatment) | BMI ([1]; Day 1, mean) | Body Weight ([1]; Day 1, mean) | Body Weight ([1]; Day 4, mean) | BMI ([1]; Day 8, mean) | Body Weight ([1]; Day 8, mean) | Body Weight ([1]; Day 11, mean) | BMI ([1]; Day 15, mean) | Body Weight ([1]; Day 15, mean) | Body Weight ([1]; Day 19, mean) | BMI ([1]; Day 22, mean) | Body Weight ([1]; Day 22, mean) | Body Weight ([1]; Day 26, mean) | Body Weight [1, 8] | BMI ([1]; Day 29, mean) | Food Intake ([1]; Day 8, mean) | Food Intake ([1]; Day 15, mean) | Food Intake ([1]; Day 22, mean) | Food Intake ([1]; Day 28, mean) | further results
1 | CC(C)Cc1ccc(C(C)C(=O)O)cc1 (stereo not drawn) [ibuprofen, 2-(4-Isobutylphenyl)propanoic acid] | lower food intake | decline in body weight | 2.67 | 386.5 | 370.8 | 2.51* | 376.4** | 379.4* | 2.44 | 377.9 | 376.3* | 2.47 | 385.8 | 380.6* | 359.0 | 2.28 | 225.4** | 258.8* | 233.5* | 239.3* | Glycated hemoglobin (HbA1c) [2]: attenuated the glycation of hemoglobin; Fasting cholesterol [3, 9]: strong decline; HDL [3, 9]: strong decline; IL-4 level ([4]; versus ZDF controls (FIG. 5A)): significantly increased; IL-10 plasma levels [4]: No significant changes; IL-13 levels ([4]; versus ZDF controls (FIG. 5C)): increased; Glucose and insulin in hyperglycemic adults (hyperglycemic adults): did not reveal major differences; Blood glucose in OGTT [5]: significant decrease in blood glucose; Fasted blood glucose levels [6]: did reduce fasting blood glucose levels but this was not significant
2 | CN(C)C(=N)NC(=N)N [metformin, 1,1-dimethylbiguanide] | did not cause any significant changes | did not cause any significant changes | 2.60 | 376.6 | 377.8 | 2.57 | 388.5 | 396.1 | 2.47 | 390.9 | 400.8 | 2.52 | 399.9 | 405.6 | 378.9 | 2.39 | 255.1 | 309.9 | 299.1 | 278.8 | Change in BMI versus ZDF control (in words) ([1]; chronic treatment): did not cause any significant changes; ICAM-1 gene expression [7]: no differences; Glycated hemoglobin (HbA1c) [2]: did not significantly affect; Fasting cholesterol [3, 9]: No significant differences; HDL [3, 9]: No significant differences; LDL [3, 9]: No significant differences; Plasma insulin levels ([3]; day 30 (FIG. 3B)): 1.54 ng/mL; IL-10 plasma levels [4]: No significant changes; Blood glucose in OGTT [5]: significant decline in blood glucose; Fasted blood glucose levels [6]: significant decrease; Fed glucose levels ([6]; fed, versus ZDF vehicle control (FIG. 1B)): significant higher levels on day 22 and 28
